# Assay results reported in patent US20150173369A1, “S[…] CONTROL AND IMPROVED CROP TOLERANCE FROM COMBINATIONS OF 2,4-D-CHOLINE, GLYPHOSATE, AND G[…] 2,4-D-, GLYPHOSATE- AND GLUFOSINATE-TOLERANT SOYBEANS, CORN, COTTON AND OTHER CROP AREAS” (Dow AgroSciences LLC, priority 2013, published 2015).
# Several values for one entry are separate records, joined by “and”; a condition that tells them apart may be missing. Identical values can stand only once.
# Columns and labels:
# [1] = system: Ambrosia trifida L. (giant ragweed, AMBTR); assay: Field trials, post-emergence weed control (% visual control); format: in vivo; settings: 542 g ae/ha alone
# Protocol: (§1) Field trials were conducted under agricultural field conditions in multiple states in the United States, including but not limited to Arkansas, Iowa, Illinois, Indiana, Kansas, Minnesota, Mississippi, Missouri, New York, Tennessee and Wisconsin. Trials were established as RCB (randomized complete block) design, with 3-4 replicates per treatment, and plot sizes varying from 5-10 feet (ft) wide by 12-30 ft long. Treatments were applied with small plot backpack sprayers, using pressurized carbon dioxide (CO2) as propellant. Pressure varied from 17-52 pounds per square inch (psi), with spray tips typically of a Flat Fan type applying water diluent at 15 gallons per acre (GPA). Boom sizes varied from 5-11 ft in width. Treatments were applied to soybean, cotton, corn or fallow crop land. Weed sizes varied, but all treatments were applied as post-emergence treatments to weeds from 2 leaf to 2 tiller growth stages varying from 3 to 17 inches in height. The weed spectrum included, but was not limited to, Amaranthus palmeri S. Wats. (Palmer amaranth, AMAPA), Ambrosia trifida L. (giant ragweed, AMBTR), Conyza canadensis (L.) Cronq. (horseweed, ERICA) and Salsola tragus L. (Russian thistle, SASKR).
# (§2) Glyphosate-, 2,4-D- and glufosinate-tolerant soybeans, corn or cotton comprising genes for tolerance for each herbicide as described above were used in all trials either as a breeding stack of one to three herbicide-tolerant events or as a molecular stack where all three herbicide tolerance traits were transformed into a single event.
# (§3) The 2,4-D-choline salt plus glyphosate premix formulation was a 400 g ae/L SL containing 195 g ae/L 2,4-D-choline salt and 205 g ae/L glyphosate-dimethylammonium (DMA) salt. […] All treatments were mixed in water at appropriate formulated product rates to achieve the desired rates as shown based on a unit area of application (hectare). Treatments were rated at 1 to 28 days after application (DAA) as compared to the untreated control plants. The trial sites had naturally occurring populations of weeds. The treated plots and control plots were rated blind at various intervals after application.
# (§4) Colby's equation was used to determine the herbicidal effects expected from the mixtures (Colby, S. R. Calculation of the synergistic and antagonistic response of herbicide combinations. Weeds 1967, 15, 20-22). A t-test (alpha=0.05) between Colby predictions and observed combinations was used to test for significant differences indicating synergy or antagonism using replicate data. The results presented in the Tables were significant according to the described criteria. The following equation was used to calculate the expected activity of mixtures containing three active ingredients, A. B, and C: […]
# [2] = system: Salsola tragus L. (Russian thistle, SASKR); assay: as above; format: in vivo; settings: 542 g ae/ha alone
# Protocol: as §1, §2, §3, §4
# [3] = system: Conyza canadensis (L.) Cronq. (horseweed, ERICA); assay: as above; format: in vivo; settings: ERICA 14DAA; 542 g ae/ha alone
# Protocol: as §1, §2, §3, §4
# [4] = system: Amaranthus palmeri S. Wats. (Palmer amaranth, AMAPA); assay: as above; format: in vivo; settings: 542 g ae/ha alone
# Protocol: as §1, §2, §3, §4
# [5] = system: AAD12 Soybean (GLXMA); assay: Field trials, crop tolerance (% visual crop injury); format: in vivo, Glycine max L.
# Protocol: as §1, §2, §3
# as §4, with “The results presented in the Tables were significant according to the described criteria.” left out
smiles,measurement,setting,value
"CP(=O)(O)CCC(N)C(=O)O (centres unmarked) [Glufosinate-Ammonium, ammonium (3-amino-3-carboxypropyl)(methyl)phosphinate]",Mean % Weed Control,[1]; AMBTR 8DAA,56.7%
same,Mean % Weed Control,[1]; AMBTR 21DAA,36.7%
same,Mean % Weed Control,[2]; SASKR 21DAA,13.8%
same,Mean % Weed Control,[2]; SASKR 28DAA,15%
same,Mean % Weed Control,[3],76.8%
same,Mean % Weed Control,[4]; AMAPA 7DAA,67.5%
same,Mean % Weed Control,[4]; AMAPA 8DAA,32.5%
same,Mean % Weed Control,[4]; AMAPA 11DAA,33.8%
same,Mean % Weed Control,[4]; AMAPA 13DAA,31.3%
same,Mean % Weed Control,[4]; AMAPA 14DAA,10.0%
same,Mean % Weed Control,[4]; AMAPA 16DAA,36.7%
same,Mean % Weed Control,[4]; AMAPA 21DAA,38.8%
same,Mean % Weed Control,[4]; AMAPA 23DAA,21.7%
same,Mean % visual crop injury,"[5]; GLXMA 1DAA, 542 g ae/ha alone",12.5%
same,Mean % visual crop injury,"[5]; GLXMA 1DAA, 822 g ae/ha alone",16.3%
same,Mean % visual crop injury,"[5]; GLXMA 1DAA, 1084 g ae/ha alone",20.0%
same,Mean % visual crop injury,"[5]; GLXMA 2DAA, 822 g ae/ha alone",9.5% and 12.3% and 11.3% and 8.3% and 7.5% and 7.3% and 13.8%
same,Mean % visual crop injury,"[5]; GLXMA 2DAA, 1084 g ae/ha alone",13.0% and 15.5% and 11.3% and 11.8% and 8.5% and 7.8% and 7.5%
same,Mean % visual crop injury,"[5]; GLXMA 4DAA, 542 g ae/ha alone",3.8% and 2.8% and 6.3%
same,Mean % visual crop injury,"[5]; GLXMA 5DAA, 542 g ae/ha alone",4.0%
same,Mean % visual crop injury,"[5]; GLXMA 5DAA, 1084 g ae/ha alone",7.8%
same,Mean % visual crop injury,"[5]; GLXMA 6DAA, 823 g ae/ha alone",33.3%
same,Mean % visual crop injury,"[5]; GLXMA 7DAA, 542 g ae/ha alone",3.3%
same,Mean % visual crop injury,"[5]; GLXMA 8DAA, 542 g ae/ha alone",2.8%
same,Mean % visual crop injury,"[5]; GLXMA 9DAA, 822 g ae/ha alone",5.5%
same,Mean % visual crop injury,"[5]; GLXMA 9DAA, 1084 g ae/ha alone",6.0%
same,Mean % visual crop injury,"[5]; GLXMA 10DAA, 1084 g ae/ha alone",8.5% and 10.0%
same,Mean % visual crop injury,"[5]; GLXMA 13DAA, 823 g ae/ha alone",10.7%
same,Mean % visual crop injury,"[5]; GLXMA 13DAA, 1084 g ae/ha alone",8.5%
same,Mean % visual crop injury,"[5]; GLXMA 14DAA, 542 g ae/ha alone",5.8% and 12.5%
same,Mean % visual crop injury,"[5]; GLXMA 15DAA, 542 g ae/ha alone",4.5%
same,Mean % visual crop injury,"[5]; GLXMA 15DAA, 822 g ae/ha alone",2.3% and 5.0%
same,Mean % visual crop injury,"[5]; GLXMA 15DAA, 1084 g ae/ha alone",5.5% and 8.5% and 2.3%
same,Mean % visual crop injury,"[5]; GLXMA 16DAA, 542 g ae/ha alone",3.0%
same,Mean % visual crop injury,"[5]; GLXMA 16DAA, 822 g ae/ha alone",4.0%
same,Mean % visual crop injury,"[5]; GLXMA 16DAA, 1084 g ae/ha alone",5.0% and 5.5%
same,Mean % visual crop injury,"[5]; GLXMA 21DAA, 542 g ae/ha alone",4.0%
same,Mean % visual crop injury,"[5]; GLXMA 21DAA, 822 g ae/ha alone",5.0%
same,Mean % visual crop injury,"[5]; GLXMA 21DAA, 1084 g ae/ha alone",6.0%
same,Mean % visual crop injury,"[5]; table title: % Visual Necrosis, GLXMA 2DAA, 1084 g ae/ha alone",25.0%
same,Mean % visual crop injury,"[5]; table title: % Visual Necrosis, GLXMA 3DAA, 542 g ae/ha alone",0.0%
same,Mean % visual crop injury,"[5]; table title: % Visual Necrosis, GLXMA 3DAA, 822 g ae/ha alone",0.8%
same,Mean % visual crop injury,"[5]; table title: % Visual Necrosis, GLXMA 3DAA, 1084 g ae/ha alone",3.0% and 8.5% and 1.5% and 1.3%
same,Mean % visual crop injury,"[5]; table title: % Visual Necrosis, GLXMA 5DAA, 542 g ae/ha alone",2.8%
same,Mean % visual crop injury,"[5]; table title: % Visual Necrosis, GLXMA 7DAA, 542 g ae/ha alone",0.5% and 0.3%
same,Mean % visual crop injury,"[5]; table title: % Visual Necrosis, GLXMA 7DAA, 822 g ae/ha alone",0.8% and 0.0% and 10.0% and 1.0% and 1.3%
same,Mean % visual crop injury,"[5]; table title: % Visual Necrosis, GLXMA 7DAA, 1084 g ae/ha alone",3.3% and 1.3% and 10.0% and 2.0% and 2.3%
same,Mean % visual crop injury,"[5]; table title: % Visual Necrosis, GLXMA 8DAA, 822 g ae/ha alone",7.5%
same,Mean % visual crop injury,"[5]; table title: % Visual Necrosis, GLXMA 8DAA, 1084 g ae/ha alone",10.0% and 12.5% and 6.5%
same,Mean % visual crop injury,"[5]; table title: % Visual Necrosis, GLXMA 9DAA, 822 g ae/ha alone",6.0%
same,Mean % visual crop injury,"[5]; table title: % Visual Necrosis, GLXMA 10DAA, 1084 g ae/ha alone",2.3%
same,Mean % visual crop injury,"[5]; table title: % Visual Necrosis, GLXMA 14DAA, 822 g ae/ha alone",0.0% and 1.0%
same,Mean % visual crop injury,"[5]; table title: % Visual Necrosis, GLXMA 14DAA, 1084 g ae/ha alone",5.0% and 2.0%
same,Mean % visual crop injury,"[5]; table title: % Visual Necrosis, GLXMA 16DAA, 542 g ae/ha alone",3.0%
same,Mean % visual crop injury,"[5]; table title: % Visual Necrosis, GLXMA 16DAA, 822 g ae/ha alone",5.0%
same,Mean % visual crop injury,"[5]; table title: % Visual Necrosis, GLXMA 16DAA, 1084 g ae/ha alone",1.8%
